Values quoted from earlier work in patent US7795435B2, “Process for obtaining the polymorphic form I of finasteride” (Ragactives, S.L., priority 2002, dated 2010).

Conditions: 25° C., according to EP 0 599 376 B1

Row | Structure (SMILES) | solubility in cyclohexane [mg/g] | solubility in water [mg/g]
1 | CC(C)(C)NC(=O)[C@H]1CC[C@H]2[C@@H]3CC[C@H]4NC(=O)C=C[C@]4(C)[C@H]3CC[C@]12C [Form I of finasteride] | 0.27 ± 0.05 | 0.05 ± 0.02
2 | CC(C)(C)NC(=O)[C@H]1CC[C@H]2[C@@H]3CC[C@H]4NC(=O)C=C[C@]4(C)[C@H]3CC[C@]12C [Form II of finasteride] | 0.42 ± 0.05 | 0.16 ± 0.02
